We go through eleven compounds from patent publication US12264156B2, “Compounds and pharmaceutical compositions thereof for the treatment of diseases” (GALAPAGOS NV, priority 2018, dated 2025).

In one test the target is T1, SIK2 (Homo sapiens, UniProt Q9H0K1).
T1 construct: purchased ThermoFisher Scientific PV4792
Briefly: ADP-Glo kinase assay, SIK2. The following applies: ADP-Glo SIK kinase assay. It counts as biochemical. The method in brief:
(§1)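 Kinase reactions (enzyme-substrate mix plus ATP) ran 120 min at room temperature for each of SIK3 and SIK2. Signal came from ADP-Glo: unconsumed ATP removed (40 min), ADP reconverted and detected by luciferase/luciferin (30 min), with luminescence tracking kinase activity. 10 μM staurosporine and 1% DMSO (final) served as controls.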
In general terms: ADP-Glo turns the ADP formed in a reaction into a luminescent signal.

A further test concerns the target T2, SIK3 (Homo sapiens, UniProt Q9Y2K2).
T2 construct: purchased SignalChem S12-11G-100
Briefly: ADP-Glo kinase assay, SIK3. It counts as biochemical. The following applies: ADP-Glo SIK kinase assay. The method in brief: as §1

Test [1] has as its system LPS-induced TNFα in monocytes. Kind of test: Monocytes assay: LPS-triggered TNFα (ELISA). The following applies: Homo sapiens, Monocyte, LPS 200 ng/mL, supernatant after 4 h. It counts as cell-based, human. The protocol:
(§2) SIK inhibition inhibits TNFα and increases IL-10 release in LPS triggered monocyte-derived macrophages (MdM) and dendritic cells (MdDCs) (Clark et al. 2012; Sundberg et al. 2014; Ozanne et al. 2015). This assay evaluates illustrative compounds of the invention for their inhibition of LPS-induced TNFα and LPS triggered IL-10 secretion in monocytes.
(§3) PBMCs are isolated from human blood samples (buffycoats). The buffy coat is aseptically transferred into a 50 mL Falcon tube, and diluted 1/2 in PBS. Falcon tubes are filled with 20 mL Lymphoprep™, on top of which 25 mL of the buffy coat is carefully added, tubes are centrifuged for 35 min at 400 g in temperature controlled centrifuge, without brake, at 25° C. PBMCs are aspirated from the white interface layer between sample and Lymphoprep™. PBMCs are washed five times in PBS. Cells are resuspended in RPMI 1640 complete medium supplemented with 10% FBS, 1% P/S, and cell density is determined using a hematologic analyzer (Sysmex XS-500i).
(§4) PBMCs are centrifuged at 300×g for 10 min and resuspended at a density of 1.0*10^7 cells/80 μL Miltenyi buffer (PBS, pH 7.4, 1% FBS, 2 mM EDTA).
(§5) Starting from this point of the protocol all steps are performed on ice. 20 μL of CD14+ micro-beads are added per 1.0*10^7 cells, the tube is mixed and incubated for 15 min in the fridge at 4° C. Cell suspension volume is adjusted to total volume of 100 mL using Miltenyi buffer, mixed gently and subsequently centrifuged for 10 min at 300×g. Supernantant is discarded and cell pellet is resuspended in 12 mL of Miltenyi buffer.
(§6) Four LS columns are placed in the MACS Separator (magnet) from Miltenyi Biotec, and are prewet by rinsing with 3 mL of MACS buffer per column. Three mL of cell suspension is added onto the column (max 1*10^8 of labelled cells/column), and columns are subsequently washed 3 times with 3 mL of Miltenyi buffer.
(§7) The columns are removed from the magnets, and 5 mL of Miltenyi buffer are added to the column to flush out the CD14+ fraction by pushing the plunger into the column. The flushed fractions are collected in a fresh 50 mL Falcon and volume is adjusted to 30 mL using Miltenyi buffer, cells are centrifuged for 10 min at 300×g. The obtained cell pellet is resuspended in 10 mL RPMI w/o FBS, and cell density is determined using a hematologic analyser (Sysmex XS-500i). 100 000 cells are seeded in 80 μL per well of a 96-well plate in RPMI 1640 medium supplemented with 10% FBS, 1% P/S.
(§8) A compound dilution plate is made in 100% DMSO by 3-fold dilution of 10 mM stock solution. An intermediate dilution plate (10× final concentration) is made by diluting the compound dilution plate 50-fold in RPMI medium.
(§9) 10 μL of the 10× final concentration compound is added to the cells and incubated for 1 h at 37° C. before addition of trigger. No trigger conditions/trigger conditions are spiked with equal final DMSO concentrations of 0.2% DMSO. 10 μL of 10×LPS (final conc. 200 ng/mL) solution are added to all wells except for the ‘no trigger wells’ where 10 μL medium is added. Supernatant is collected after 4 h of LPS triggering.
A Lumitrac 600 Greiner 384-well plate is coated with 40 μL of capture antibody (BD Pharmingen, Cat #551220) reaching a final concentration of 1 μg/mL in 1×PBS and stored overnight at 4° C.
The plate is then washed once with PBST (PBS+0.05% Tween20) and once with PBS followed by the addition of 100 μL of blocking buffer (1% Bovine Serum Albumin (BSA)−5% Sucrose) and plates are sealed and incubated for at least 4 h at RT. After washing the plate once with PBST and once with PBS, […]. Plates are washed twice with PBST, and once with PBS, after which 35 μL of the detection antibody is added (final concentration 0.25 μg/mL diluted in dilution buffer) and plates are incubated for at least 2 h at RT. […]
(In general: ELISA stands for enzyme-linked immunosorbent assay.)

Test [2] deals with LPS triggered IL-10 secretion in monocytes. Briefly: Monocytes assay: LPS-triggered IL-10 (ELISA). It counts as cell-based, human. The following applies: LPS 200 ng/mL, supernatant after 4 h, maximal fold change vs LPS only. Here is the method:
as §2, §3, §4, §5, §6, §7, §8, §9
A Lumitrac 600 Greiner 384-well plate is coated with 40 μL of capture antibody (final concentration of 1 μg/mL in 1×PBS) and stored overnight at 4° C. The next day the plate is washed three times with PBST (PBS+0.05% Tween20) and once with PBS followed by the addition of 100 μL of blocking buffer (1% BSA−5% Sucrose) and plates are sealed and incubated for at least 4 h at RT. After washing the plate once with PBST and once with PBS, 40 μL of standard or sample are added (IL-10 standard curve is prepared using a 1/2 serial dilution starting from […]; dilutions are made in dilution buffer (PBS+1% BSA)). Plates are washed twice with PBST, and once with PBS, after which 35 μL of the detection antibody is added (final concentration 0.143 μg/mL diluted in dilution buffer) and plates are incubated for at least 2 h at RT. […]

The next test deals with T3, SIK1 (Homo sapiens, UniProt P57059).
T3 construct: purchased Carna Biosciences 02-131
T3 sequence (P57059 whole entry): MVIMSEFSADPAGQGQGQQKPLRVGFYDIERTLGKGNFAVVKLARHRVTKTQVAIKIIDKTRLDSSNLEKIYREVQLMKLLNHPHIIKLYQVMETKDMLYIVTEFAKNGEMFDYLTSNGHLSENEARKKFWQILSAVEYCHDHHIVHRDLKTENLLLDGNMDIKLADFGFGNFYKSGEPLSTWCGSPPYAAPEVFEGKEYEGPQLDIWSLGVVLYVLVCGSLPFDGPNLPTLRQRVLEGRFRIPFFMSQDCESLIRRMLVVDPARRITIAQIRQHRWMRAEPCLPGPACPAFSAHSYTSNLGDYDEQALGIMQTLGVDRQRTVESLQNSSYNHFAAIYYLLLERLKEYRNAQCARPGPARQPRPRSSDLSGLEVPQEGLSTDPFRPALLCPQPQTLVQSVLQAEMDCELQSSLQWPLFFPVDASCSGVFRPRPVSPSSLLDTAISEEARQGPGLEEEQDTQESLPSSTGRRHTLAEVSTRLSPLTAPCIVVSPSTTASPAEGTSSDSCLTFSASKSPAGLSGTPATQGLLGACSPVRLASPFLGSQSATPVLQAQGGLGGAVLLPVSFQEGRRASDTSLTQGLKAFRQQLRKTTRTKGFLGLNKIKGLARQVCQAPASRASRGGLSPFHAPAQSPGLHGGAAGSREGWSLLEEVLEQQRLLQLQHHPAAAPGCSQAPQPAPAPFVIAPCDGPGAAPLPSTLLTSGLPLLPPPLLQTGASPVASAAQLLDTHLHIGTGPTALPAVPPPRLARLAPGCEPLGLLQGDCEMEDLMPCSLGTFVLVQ
Kind of test: ADP-Glo kinase assay, SIK1. It counts as biochemical. Particulars: ADP-Glo SIK kinase assay. The gist of the method: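 Wells with 1% DMSO or 10 μM staurosporine (final) define the control window. The kinase reaction with substrate and ATP runs 120 min at RT, followed by ADP-Glo detection: ATP depletion (40 min) and ADP-derived luminescence (30 min).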

T1 sequence (Q9H0K1 whole entry): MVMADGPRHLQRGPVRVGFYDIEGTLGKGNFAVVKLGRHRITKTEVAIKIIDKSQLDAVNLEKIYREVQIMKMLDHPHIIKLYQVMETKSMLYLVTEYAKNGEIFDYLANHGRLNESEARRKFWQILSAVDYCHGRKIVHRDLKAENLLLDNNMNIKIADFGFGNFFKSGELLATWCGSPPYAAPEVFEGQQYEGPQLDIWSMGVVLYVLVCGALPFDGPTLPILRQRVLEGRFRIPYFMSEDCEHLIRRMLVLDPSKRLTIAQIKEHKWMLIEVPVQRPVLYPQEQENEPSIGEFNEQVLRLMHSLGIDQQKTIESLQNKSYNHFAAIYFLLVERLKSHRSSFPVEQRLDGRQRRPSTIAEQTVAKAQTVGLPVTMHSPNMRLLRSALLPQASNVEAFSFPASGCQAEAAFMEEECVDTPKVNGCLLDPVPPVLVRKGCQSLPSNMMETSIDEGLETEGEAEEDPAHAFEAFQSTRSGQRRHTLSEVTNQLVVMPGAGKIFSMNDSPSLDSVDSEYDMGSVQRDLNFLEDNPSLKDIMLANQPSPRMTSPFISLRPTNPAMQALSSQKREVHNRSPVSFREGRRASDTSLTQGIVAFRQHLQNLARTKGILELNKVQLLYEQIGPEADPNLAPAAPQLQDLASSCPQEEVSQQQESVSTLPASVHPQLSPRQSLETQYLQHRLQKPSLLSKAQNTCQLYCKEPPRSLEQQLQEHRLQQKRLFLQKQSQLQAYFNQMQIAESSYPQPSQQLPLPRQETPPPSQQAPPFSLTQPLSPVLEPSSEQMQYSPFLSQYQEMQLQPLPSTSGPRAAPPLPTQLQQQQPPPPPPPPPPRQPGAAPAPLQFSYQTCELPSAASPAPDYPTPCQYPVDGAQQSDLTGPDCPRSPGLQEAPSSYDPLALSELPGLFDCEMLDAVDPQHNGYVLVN
T2 sequence (Q9Y2K2 whole entry): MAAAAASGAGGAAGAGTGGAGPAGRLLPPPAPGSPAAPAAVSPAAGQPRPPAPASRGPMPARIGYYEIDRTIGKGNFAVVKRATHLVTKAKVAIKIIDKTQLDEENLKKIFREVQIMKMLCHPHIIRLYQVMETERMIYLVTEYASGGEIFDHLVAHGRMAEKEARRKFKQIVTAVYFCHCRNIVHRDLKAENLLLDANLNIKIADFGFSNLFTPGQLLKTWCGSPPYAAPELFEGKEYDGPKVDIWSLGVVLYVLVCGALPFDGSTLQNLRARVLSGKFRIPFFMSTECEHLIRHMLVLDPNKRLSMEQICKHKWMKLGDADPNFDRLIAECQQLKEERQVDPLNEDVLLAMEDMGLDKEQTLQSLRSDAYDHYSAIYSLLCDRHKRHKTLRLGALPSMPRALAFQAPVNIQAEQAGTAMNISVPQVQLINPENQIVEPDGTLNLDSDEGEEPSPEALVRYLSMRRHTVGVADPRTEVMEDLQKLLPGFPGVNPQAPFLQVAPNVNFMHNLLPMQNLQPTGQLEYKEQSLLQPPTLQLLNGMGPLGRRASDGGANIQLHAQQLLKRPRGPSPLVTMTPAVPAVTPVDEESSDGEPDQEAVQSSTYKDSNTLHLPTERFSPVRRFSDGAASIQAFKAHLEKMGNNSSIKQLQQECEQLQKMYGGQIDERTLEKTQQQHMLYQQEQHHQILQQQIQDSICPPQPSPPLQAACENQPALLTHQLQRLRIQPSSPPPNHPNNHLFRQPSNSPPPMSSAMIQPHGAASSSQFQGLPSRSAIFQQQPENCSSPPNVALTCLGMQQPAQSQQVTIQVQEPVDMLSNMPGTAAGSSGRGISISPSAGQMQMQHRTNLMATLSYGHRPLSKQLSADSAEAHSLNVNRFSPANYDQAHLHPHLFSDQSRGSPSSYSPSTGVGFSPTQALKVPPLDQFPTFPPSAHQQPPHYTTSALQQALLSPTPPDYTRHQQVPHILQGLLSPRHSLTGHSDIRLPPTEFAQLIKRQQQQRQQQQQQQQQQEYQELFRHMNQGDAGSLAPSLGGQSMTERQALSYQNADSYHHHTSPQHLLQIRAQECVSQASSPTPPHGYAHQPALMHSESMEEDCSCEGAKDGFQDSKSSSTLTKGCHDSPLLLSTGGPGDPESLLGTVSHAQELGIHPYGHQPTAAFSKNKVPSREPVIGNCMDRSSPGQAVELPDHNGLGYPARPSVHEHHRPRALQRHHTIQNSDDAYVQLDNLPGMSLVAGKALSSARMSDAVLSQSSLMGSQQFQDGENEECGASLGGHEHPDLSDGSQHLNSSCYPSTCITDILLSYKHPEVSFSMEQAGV

On to `COc1cc(-c2cnc3cc(OCC4CCN(C(C)C)C4)ccn23)cc(OC(F)F)c1C(=O)NC1CC1` (stereo not shown) [Cpd 287, N-cyclopropyl-2-(difluoromethoxy)-4-[7-[(1-isopropylpyrrolidin-3-yl)methoxy]imidazo[1,2-a]pyridin-3-yl]-6-methoxy-benzamide], for which the IC50 – broadly, the concentration that gives 50% inhibition – against SIK2 lay within 0.01 to 10 nM; at SIK3 it was 0.01 to 10 nM; against SIK1, 10 to 100 nM. In test [1] (4 h), the EC50 (in general, the midpoint of the concentration-response curve) lay in the range of 0.1 to 100 nM. The “IL-10 FCmax median” value in test [2] is “++ (>1.5-4.5)”.
In the case of `COc1cc(-c2cnc3cc(OCCCN4CCC(O)CC4)ccn23)cc(OC(F)F)c1C(=O)NC1CC1` [compound 277, N-cyclopropyl-2-(difluoromethoxy)-4-[7-[3-(4-hydroxy-1-piperidyl)propoxy]imidazo [1,2-a]pyridin-3-yl]-6-methoxy-benzamide], the IC50 was in the range of 0.01 to 10 nM against SIK2, 0.01 to 10 nM on SIK3 and 10 to 100 nM against SIK1. In test [1] (4 h), this compound displayed an EC50 of 0.1 to 100 nM. In test [2], the “IL-10 FCmax median” value is “+++ (>4.5)”.
Regarding `COc1cc(-c2cnc3cc(OCC4CCN(C5COC5)C4)ccn23)cc(OC(F)F)c1C(=O)NC1CC1` (stereo not shown) [Cpd 288, N-cyclopropyl-2-(difluoromethoxy)-6-methoxy-4-[7-[[1-(oxetan-3-yl)pyrrolidin-3-yl]methoxy]imidazo[1,2-a]pyridin-3-yl]benzamide], the IC50 at SIK2 lay within 0.01 to 10 nM; on SIK3, 0.01 to 10 nM; against SIK1, 10 to 100 nM. Besides, in test [1] (4 h), the EC50 was 0.1 to 100 nM. Also, the “IL-10 FCmax median” value in test [2] is listed as “+++ (>4.5)”.
As to `COc1cc(-c2cnc3cc(OCCCN4CCS(=N)(=O)CC4)ccn23)cc(OC(F)F)c1C(=O)NC1CC1` [compound 327, N-cyclopropyl-2-(difluoromethoxy)-4-[7-[3-(1-imino-1-oxo-1,4-thiazinan-4-yl)propoxy]imidazo[1,2-a]pyridin-3-yl]-6-methoxy-benzamide], the IC50 at SIK2 fell in the range of 0.01 to 10 nM; against SIK3 it was 0.01 to 10 nM; against SIK1, 10 to 100 nM. Moreover, in test [1] (4 h), the EC50 was in the range of 100 to 1000 nM. Besides, the “IL-10 FCmax median” value in test [2] is “+++ (>4.5)”.
Consider `COc1cc(-c2cnc3cc(OCCOCCN4CCN(C(C)C)CC4)ccn23)cc(OC(F)F)c1C(=O)NC1CC1` [compound 298, N-cyclopropyl-2-(difluoromethoxy)-4-[7-[2-[2-(4-isopropylpiperazin-1-yl)ethoxy]ethoxy]imidazo [1,2-a]pyridin-3-yl]-6-methoxy-benzamide], for which the IC50 on SIK2 was in the range of 0.01 to 10 nM; at SIK3 it was 0.01 to 10 nM; on SIK1, 10 to 100 nM. Moreover, in test [1] (4 h), the EC50 lay within 100 to 1000 nM. Also, in test [2], the “IL-10 FCmax median” value is “+++ (>4.5)”.
For `COc1cc(-c2cnc3cc(OCCCN4CCCCC4)ccn23)cc(OC(F)F)c1C(=O)NCC#N` [compound 356, N-(cyanomethyl)-2-(difluoromethoxy)-6-methoxy-4-[7-[3-(1-piperidyl)propoxy]imidazo[1,2-a]pyridin-3-yl]benzamide], the figures for the IC50 on SIK2, against SIK3 and on SIK1 were 0.01 to 10 nM, 0.01 to 10 nM and 10 to 100 nM, respectively. Also, in test [1] (4 h), the EC50 is 100 to 1000 nM. In addition, the “IL-10 FCmax median” value in test [2] is “+++ (>4.5)”.
Take `COc1cc(-c2cnc3cc(OC[C@@H]4CCCN(CCO)C4)ccn23)cc(OC(F)F)c1C(=O)NC1CC1` [Cpd 370, N-cyclopropyl-2-(difluoromethoxy)-4-[7-[[(3R)-1-(2-hydroxyethyl)-3-piperidyl]methoxy]imidazo [1,2-a]pyridin-3-yl]-6-methoxy-benzamide]: the IC50 against SIK2 is 0.01 to 10 nM; against SIK3, 0.01 to 10 nM; against SIK1, 10 to 100 nM. Further, the EC50 in test [1] (4 h) lay within 100 to 1000 nM. Also, the “IL-10 FCmax median” value in test [2] is “++ (>1.5-4.5)”.
With `COc1cc(-c2cnc3cc(OC[C@H]4CCN(C(C)C)C4)ccn23)cc(OC(F)F)c1C(=O)NC1CC1` [compound 316, N-cyclopropyl-2-(difluoromethoxy)-4-[7-[[(3S)-1-isopropylpyrrolidin-3-yl]methoxy]imidazo[1,2-a]pyridin-3-yl]-6-methoxy-benzamide], the IC50 fell in the range of 0.01 to 10 nM at SIK2, 0.01 to 10 nM against SIK3 and 10 to 100 nM against SIK1. The EC50 in test [1] (4 h) is 0.1 to 100 nM. Also, the “IL-10 FCmax median” value in test [2] is listed as “+++ (>4.5)”.
For the compound `COc1cc(-c2cnc3cc(OC4C[C@H]5CC[C@@H](C4)N5CCC#N)ccn23)cc(OC(F)F)c1C(=O)NC1CC1` (stereo partly drawn) [Cpd 271, 4-[7-[[(1S,5R)-8-(2-cyanoethyl)-8-azabicyclo[3.2.1]octan-3-yl]oxy]imidazo[1,2-a]pyridin-3-yl]-N-cyclopropyl-2-(difluoromethoxy)-6-methoxy-benzamide], the half-maximal inhibitory concentration (IC50) lay in the range of 10 to 100 nM at SIK2, 0.01 to 10 nM against SIK3 and 100 to 500 nM against SIK1. The EC50 in test [1] (4 h) fell in the range of 100 to 1000 nM. Besides, the “IL-10 FCmax median” value in test [2] is listed as “++ (>1.5-4.5)”.
The matching figures for `COc1cc(-c2cnc3cc(OCCCN4CCC5(COC5)C4)ccn23)cc(OC(F)F)c1C(=O)NC1CC1` [compound 285, N-cyclopropyl-2-(difluoromethoxy)-6-methoxy-4-[7-[3-(2-oxa-7-azaspiro[3.4]octan-7-yl)propoxy]imidazo[1,2-a]pyridin-3-yl]benzamide]: 0.01 to 10 nM, 0.01 to 10 nM, 10 to 100 nM, 100 to 1000 nM and “+++ (>4.5)”.
Take `COc1cc(-c2cnc3cc(OCC4CN(CC#N)C4)ccn23)cc(OC(F)F)c1C(=O)NC1CC1` [Cpd 322, 4-[7-[[1-(cyanomethyl)azetidin-3-yl]methoxy]imidazo[1,2-a]pyridin-3-yl]-N-cyclopropyl-2-(difluoromethoxy)-6-methoxy-benzamide]: the IC50 fell in the range of 0.01 to 10 nM against SIK2, 0.01 to 10 nM against SIK3 and 10 to 100 nM against SIK1. In test [1], the EC50 is 0.1 to 100 nM. For the same compound, in test [2], the “IL-10 FCmax median” value is listed as “++ (>1.5-4.5)”.
